We go through four molecules from paper PMC9831253, “Sequence-Defined Heteromultivalent Precision Glycomacromolecules Bearing Sulfonated/Sulfated Nonglycosidic Moieties Preferentially Bind Galectin-3 and Delay Wound Healing of a Galectin-3 Positive Tumor Cell Line in an In Vitro Wound Scratch Assay” (Macromolecular bioscience, 2020).

Assay [1] has as its target T1, Gal-3 (galectin-3) (Homo sapiens, UniProt P17931).
T1 construct: gene LGALS3; ELISA by an established protocol of Elling and co-workers
The assay is described as follows: ELISA-type inhibition of binding to asialofetuin. As to conditions: read-out: Gal-3 IC50 ± SD [× 10^-6M]^a). The text has this:
ELISA-type inhibition of binding to asialofetuin on Gal-3 (galectin-3)

In a further assay the target is T2, Gal-1 (galectin-1) (Homo sapiens, UniProt P09382).
T2 construct: gene LGALS1; ELISA by an established protocol of Elling and co-workers
T2 sequence (P09382 2-135): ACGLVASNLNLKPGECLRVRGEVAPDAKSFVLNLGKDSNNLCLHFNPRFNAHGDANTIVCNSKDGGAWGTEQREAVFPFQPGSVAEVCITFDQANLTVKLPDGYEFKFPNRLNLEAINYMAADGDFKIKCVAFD
Put plainly: ELISA-type inhibition of binding to asialofetuin. As to conditions: read-out: Gal-1 IC50 ± SD [× 10^-6M]^a). The source says: ELISA-type inhibition of binding to asialofetuin on Gal-1 (galectin-1)

Assay [2] has as its target T1, Gal-3 (galectin-3). Put plainly: ELISA-type inhibition and SPR inhibition. It is filed as biochemical. As to conditions: glucose non-binding control; PBS pH 7.5.

T1 sequence (P17931 2-250): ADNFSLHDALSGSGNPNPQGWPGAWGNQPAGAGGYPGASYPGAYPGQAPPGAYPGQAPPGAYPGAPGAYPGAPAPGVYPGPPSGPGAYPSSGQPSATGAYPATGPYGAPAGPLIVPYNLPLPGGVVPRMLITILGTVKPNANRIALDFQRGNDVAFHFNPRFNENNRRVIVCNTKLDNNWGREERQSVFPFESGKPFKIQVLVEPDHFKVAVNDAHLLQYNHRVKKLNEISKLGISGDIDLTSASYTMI

Take `CC(=O)NCCOCCOCCNC(=O)CCC(=O)NCCN(CCNC(=O)CCC(N)=O)C(=O)CCc1cn([C@@H]2O[C@H](CO)[C@@H](O[C@@H]3O[C@H](CO)[C@H](O)[C@H](O)[C@H]3O)[C@H](O)[C@H]2O)nn1` [1b, Lac(1)-2-Ac]: the 50% inhibitory concentration (IC50) at Gal-3 (galectin-3) [1] was 123 ± 3 µM; on Gal-1 (galectin-1) it was 296 ± 70 µM. As for `CC(=O)NCCOCCOCCNC(=O)CCC(=O)NCCN(CCNC(=O)CCC(=O)NCCN(CCNC(=O)CCC(=O)NCCN(CCNC(=O)CCC(=O)NCCN(CCNC(=O)CCC(=O)NCCN(CCNC(=O)CCC(N)=O)C(=O)CCc1cn(CCO[C@H]2O[C@H](CO)[C@@H](O)[C@H](O)[C@H]2O)nn1)C(=O)CCC(=O)NCc1ccccc1)C(=O)CCc1cn(CCO[C@H]2O[C@H](CO)[C@@H](O)[C@H](O)[C@H]2O)nn1)C(=O)CCC(=O)NCc1ccccc1)C(=O)CCc1cn(CCO[C@H]2O[C@H](CO)[C@@H](O)[C@H](O)[C@H]2O)nn1` [10b, Glc(1,3,5)-Bz(2,4)-6-Ac], the no inhibition result at Gal-3 (galectin-3) [2] was “nonbinding carbohydrate ligand (glucose, 9b-13b), we see no inhibition in both ELISA and SPR”. Same read-out and setting: the value for `CC(=O)NCCOCCOCCNC(=O)CCC(=O)NCCN(CCNC(=O)CCC(=O)NCCN(CCNC(=O)CCC(=O)NCCN(CCNC(=O)CCC(=O)NCCN(CCNC(=O)CCC(=O)NCCN(CCNC(=O)CCC(N)=O)C(=O)CCc1cn(CCO[C@H]2O[C@H](CO)[C@@H](O)[C@H](O)[C@H]2O)nn1)C(=O)CCC(=O)Nc1ccc(N)cc1)C(=O)CCc1cn(CCO[C@H]2O[C@H](CO)[C@@H](O)[C@H](O)[C@H]2O)nn1)C(=O)CCC(=O)Nc1ccc(N)cc1)C(=O)CCc1cn(CCO[C@H]2O[C@H](CO)[C@@H](O)[C@H](O)[C@H]2O)nn1` [11b, Glc(1,3,5)-pNH2Ph(2,4)-6-Ac] was “nonbinding carbohydrate ligand (glucose, 9b-13b), we see no inhibition in both ELISA and SPR”. Same read-out and setting: then `CC(=O)NCCOCCOCCNC(=O)CCC(=O)NCCN(CCNC(=O)CCC(=O)NCCN(CCNC(=O)CCC(=O)NCCN(CCNC(=O)CCC(=O)NCCN(CCNC(=O)CCC(=O)NCCN(CCNC(=O)CCC(N)=O)C(=O)CCc1cn(CCO[C@H]2O[C@H](CO)[C@@H](O)[C@H](O)[C@H]2O)nn1)C(=O)CCC(=O)Nc1ccc(S(=O)(=O)O)cc1)C(=O)CCc1cn(CCO[C@H]2O[C@H](CO)[C@@H](O)[C@H](O)[C@H]2O)nn1)C(=O)CCC(=O)Nc1ccc(S(=O)(=O)O)cc1)C(=O)CCc1cn(CCO[C@H]2O[C@H](CO)[C@@H](O)[C@H](O)[C@H]2O)nn1` [12b, Glc(1,3,5)-pSO3H Ph(2,4)-6-Ac], with “nonbinding carbohydrate ligand (glucose, 9b-13b), we see no inhibition in both ELISA and SPR”.
